Measurements as given in patent US7494996B2 (priority 2000, dated 2009).

How the values were obtained:
[1] = tested on: Pyricularia oryzae; test: whole plant or invertebrate; format: in vivo; settings: 100 is total disease control, 0 is no disease control; for Rice Blast (RB) protectant fungicide data, percent control: 300 g/ha, greenhouse
[2] = tested on: Sphaerotheca fuliginea; test: Cucumber Powdery Mildew (CPM) protectant test in the greenhouse; format: in vivo; settings: 100 is total disease control, 0 is no disease control; for Cucumber Powdery Mildew (CPM) protectant fungicide data, percent control: 300 g/ha
Procedure: Plants used in the fungicide testing program were grown in 2-¼-inch (5.7-cm). square pots containing RediEarth propagation substrate. The plants were raised under greenhouse conditions. The rice plants were 12-days-old and cucumbers were 13-days-old at the time of spraying with chemical treatments.
The sample of the experimental chemical was weighed and dissolved in an acetone-methanol-water solution (A/M/W at 1:1:2 ratio by volume).
After sprayer calibration, the test solutions were poured into the fungicide sprayer. The fungicide sprayer contains three spray nozzles, located approximately 10 cm above and to the sides of the plants. The spray produced by the nozzles results in uniform coverage of both the upper and lower parts of the plant leaves. After spraying, the treated plants were placed in a drying chamber for 4 hours, prior to sorting.
Cucumber Powdery Mildew (CPM), caused by the fungus Sphaerotheca fuliginea, was maintained on large cucumber plants. For inoculum preparation, five to eight leaves depending on size, completely covered with powdery mildew spores, were collected. The leaves were placed in a glass jar and covered with 500 ml of water, containing 5 drops of Tween-80. The material was filtered through two layers of cheesecloth to remove leaf fragments. The spore count was adjusted to 2×10^5 spores per ml.
Cucumber plants, cv. “Bush Champion,” were used for this test. The plants were thinned to one per pot after the cotyledons were fully developed. Two days before the test, the small leaves and meristem region were removed, leaving only the cotyledons and one large true leaf.
The protectant tests required that the cucumber plants be inoculated 1 day after spraying with the chemical treatment. The plants were inoculated with a hand-held spray bottle with the suspension of fungal spores. The leaves were lightly misted on the upper surface from two different spray directions. Disease development occurred in the greenhouse.
After seven days, the plants were evaluated for percent of disease control. The results are reported as percent control; 100 is total disease control, 0 is no disease control.

Structure (SMILES): CC(=O)CC1NC(c2ccc(Cl)cc2)=NN(CC(F)(F)F)C1=O (centres unmarked) [Compound 20, 1-(2,2,2-Trifluorethyl)-3-(4-chlorophenyl)-5-(2-propanone)-4,5-dihydro-1,2,4-triazin-6-one]
- Rice Blast (RB) protectant fungicide data, percent control [1]: 50 percent control
- Cucumber Powdery Mildew (CPM) protectant fungicide data, percent control [2]: 75 percent control

Structure (SMILES): O=C1CNC(c2ccc(Cl)c(Cl)c2)=NN1c1cccc(Cl)c1 [Compound 196]
- Rice Blast (RB) protectant fungicide data, percent control [1]: 99 percent control
- Cucumber Powdery Mildew (CPM) protectant fungicide data, percent control [2]: 0 percent control

Structure (SMILES): CC(C)(C)OC(=O)N1CC(=O)N(C(=O)OC(C)(C)C)N=C1c1cc(Cl)cc(Cl)c1 [Compound 11, 1,4-di-(t-butoxycarbonyl)-3-(3,5-dichlorphenyl)-4,5-dihydro-1,2,4-triazin-6-one]
- Rice Blast (RB) protectant fungicide data, percent control [1]: 75 percent control
- Cucumber Powdery Mildew (CPM) protectant fungicide data, percent control [2]: 0 percent control

Structure (SMILES): CCCCN1N=C(c2ccc(C)c(Cl)c2)NCC1=O [Compound 294]
- Rice Blast (RB) protectant fungicide data, percent control [1]: 100 percent control
- Cucumber Powdery Mildew (CPM) protectant fungicide data, percent control [2]: 80 percent control

Structure (SMILES): CCCCN1N=C(c2ccc(C(F)(F)F)cc2)NCC1=O [Compound 117]
- Rice Blast (RB) protectant fungicide data, percent control [1]: 90 percent control
- Cucumber Powdery Mildew (CPM) protectant fungicide data, percent control [2]: 0 percent control

Structure (SMILES): CCCCN1N=C(C)NC(c2ccccc2)C1=O (centres unmarked) [Compound 92]
- Rice Blast (RB) protectant fungicide data, percent control [1]: 0 percent control
- Cucumber Powdery Mildew (CPM) protectant fungicide data, percent control [2]: 50 percent control

Structure (SMILES): C=CCOC(=O)N1CC(=O)N(CCCC)N=C1c1cc(Cl)cc(Cl)c1 [Compound 132]
- Rice Blast (RB) protectant fungicide data, percent control [1]: 85 percent control
- Cucumber Powdery Mildew (CPM) protectant fungicide data, percent control [2]: 50 percent control

Structure (SMILES): O=c1cnc(-c2ccccc2Cl)nn1CC(F)(F)F [Compound 267]
- Rice Blast (RB) protectant fungicide data, percent control [1]: 80 percent control
- Cucumber Powdery Mildew (CPM) protectant fungicide data, percent control [2]: 85 percent control

Structure (SMILES): C[Si](C)(C)CN1N=C(c2ccc(Cl)cc2)NCC1=O [Compound 61]
- Rice Blast (RB) protectant fungicide data, percent control [1]: 85 percent control
- Cucumber Powdery Mildew (CPM) protectant fungicide data, percent control [2]: 50 percent control

Structure (SMILES): CCOC(=O)Cn1nc(-c2ccc(Cl)cc2)ncc1=O [Compound 250]
- Rice Blast (RB) protectant fungicide data, percent control [1]: 90 percent control
- Cucumber Powdery Mildew (CPM) protectant fungicide data, percent control [2]: 50 percent control

Structure (SMILES): O=C1CNC(c2cccc(Cl)c2)=NN1c1ccccc1 [Compound 111]
- Rice Blast (RB) protectant fungicide data, percent control [1]: 85 percent control
- Cucumber Powdery Mildew (CPM) protectant fungicide data, percent control [2]: 90 percent control

Structure (SMILES): CCCCn1nc(-c2ccc(F)c(Br)c2)ncc1=O [Compound 289]
- Rice Blast (RB) protectant fungicide data, percent control [1]: 100 percent control
- Cucumber Powdery Mildew (CPM) protectant fungicide data, percent control [2]: 50 percent control

Structure (SMILES): CCCCN1N=C(c2cc(Cl)cc(Cl)c2)N(C(=O)OCOC(C)=O)CC1=O [Compound 118]
- Rice Blast (RB) protectant fungicide data, percent control [1]: 90 percent control
- Cucumber Powdery Mildew (CPM) protectant fungicide data, percent control [2]: 0 percent control

Structure (SMILES): O=c1cnc(-c2ccc(F)c(Br)c2)nn1CC(F)(F)F [Compound 290]
- Rice Blast (RB) protectant fungicide data, percent control [1]: 100 percent control
- Cucumber Powdery Mildew (CPM) protectant fungicide data, percent control [2]: 50 percent control

Structure (SMILES): CCCCN1N=C(C)NC(c2cccc(C)c2)C1=O (centres unmarked) [Compound 77]
- Rice Blast (RB) protectant fungicide data, percent control [1]: 0 percent control
- Cucumber Powdery Mildew (CPM) protectant fungicide data, percent control [2]: 50 percent control

Structure (SMILES): Cc1ccc(C2=NN(CC(F)(F)F)C(=O)CN2)cc1Cl [Compound 293]
- Rice Blast (RB) protectant fungicide data, percent control [1]: 100 percent control
- Cucumber Powdery Mildew (CPM) protectant fungicide data, percent control [2]: 50 percent control

Structure (SMILES): CCCCOc1ccc(-c2ncc(=O)n(CCC)n2)cc1 [Compound 280]
- Rice Blast (RB) protectant fungicide data, percent control [1]: 50 percent control
- Cucumber Powdery Mildew (CPM) protectant fungicide data, percent control [2]: 0 percent control

Structure (SMILES): Cc1cccc(N2N=C(c3ccc(OCC(F)(F)F)nc3)NCC2=O)c1 [Compound 188]
- Rice Blast (RB) protectant fungicide data, percent control [1]: 80 percent control
- Cucumber Powdery Mildew (CPM) protectant fungicide data, percent control [2]: 0 percent control

Structure (SMILES): CCCCn1nc(-c2ccccc2OC)ncc1=O [Compound 283]
- Rice Blast (RB) protectant fungicide data, percent control [1]: 90 percent control
- Cucumber Powdery Mildew (CPM) protectant fungicide data, percent control [2]: 50 percent control

Structure (SMILES): CCCCN1N=C(c2cc(Cl)cc(Cl)c2)NCC1=O [Compound 104]
- Rice Blast (RB) protectant fungicide data, percent control [1]: 99 percent control
- Cucumber Powdery Mildew (CPM) protectant fungicide data, percent control [2]: 80 percent control

Structure (SMILES): CCCCn1nc(-c2cc(Cl)ccc2Cl)ncc1=O [Compound 269]
- Rice Blast (RB) protectant fungicide data, percent control [1]: 99 percent control
- Cucumber Powdery Mildew (CPM) protectant fungicide data, percent control [2]: 0 percent control

Structure (SMILES): CCCCN1N=C(c2ccc(Cl)c(Cl)c2)N(C(=S)Oc2ccccc2)CC1=O [Compound 178]
- Rice Blast (RB) protectant fungicide data, percent control [1]: 75 percent control
- Cucumber Powdery Mildew (CPM) protectant fungicide data, percent control [2]: 0 percent control

Structure (SMILES): N#CCCN1N=C(c2ccc(-c3ccc([N+](=O)[O-])cc3)cc2)NCC1=O [Compound 166]
- Rice Blast (RB) protectant fungicide data, percent control [1]: 75 percent control
- Cucumber Powdery Mildew (CPM) protectant fungicide data, percent control [2]: 0 percent control

Structure (SMILES): CCCCN1N=C(c2sc(C)nc2C(F)(F)F)NCC1=O [Compound 68]
- Rice Blast (RB) protectant fungicide data, percent control [1]: 0 percent control
- Cucumber Powdery Mildew (CPM) protectant fungicide data, percent control [2]: 50 percent control

Structure (SMILES): O=C1CNC(c2ccco2)=NN1CC(F)(F)F [Compound 140]
- Rice Blast (RB) protectant fungicide data, percent control [1]: 0 percent control
- Cucumber Powdery Mildew (CPM) protectant fungicide data, percent control [2]: 50 percent control

Structure (SMILES): CCOC(=O)CN1N=C(c2cccc(C)c2)NCC1=O [Compound 165]
- Rice Blast (RB) protectant fungicide data, percent control [1]: 80 percent control
- Cucumber Powdery Mildew (CPM) protectant fungicide data, percent control [2]: 0 percent control

Structure (SMILES): CCCCN1N=C(C)NC(c2cccc(N)c2)C1=O (centres unmarked) [Compound 78]
- Rice Blast (RB) protectant fungicide data, percent control [1]: 0 percent control
- Cucumber Powdery Mildew (CPM) protectant fungicide data, percent control [2]: 25 percent control

Structure (SMILES): CCCCn1nc(-c2cccc(Cl)c2)ncc1=O [Compound 277]
- Rice Blast (RB) protectant fungicide data, percent control [1]: 95 percent control
- Cucumber Powdery Mildew (CPM) protectant fungicide data, percent control [2]: 0 percent control

Structure (SMILES): CCOCCN1N=C(c2cc(Cl)cc(Cl)c2)NCC1=O [Compound 108]
- Rice Blast (RB) protectant fungicide data, percent control [1]: 90 percent control
- Cucumber Powdery Mildew (CPM) protectant fungicide data, percent control [2]: 85 percent control

Structure (SMILES): O=C1CNC(c2cccc(Br)c2)=NN1CC(F)(F)F [Compound 212]
- Rice Blast (RB) protectant fungicide data, percent control [1]: 98 percent control
- Cucumber Powdery Mildew (CPM) protectant fungicide data, percent control [2]: 85 percent control

Structure (SMILES): O=C1CNC(c2ccc(Cl)cc2)=NN1c1ccccn1 [Compound 59]
- Rice Blast (RB) protectant fungicide data, percent control [1]: 50 percent control
- Cucumber Powdery Mildew (CPM) protectant fungicide data, percent control [2]: 0 percent control

Structure (SMILES): CCCCOc1ccc(C2=NN(CC(F)(F)F)C(=O)CN2)cc1 [Compound 155]
- Rice Blast (RB) protectant fungicide data, percent control [1]: 90 percent control
- Cucumber Powdery Mildew (CPM) protectant fungicide data, percent control [2]: 85 percent control

Structure (SMILES): O=C1CNC(c2ccc(Cl)c(Cl)c2)=NN1CC1CC1 [Compound 9, 1-Cyclopropylmethyl-3-(3,4-dichlorophenyl)-4,5-dihydro-1,2,4-triazin-6-one]
- pest or weed control at 300 g/ha ([1]; Pyricularia oryzae, topical, 144 h, read-out: Rice Blast (RB) protectant fungicide data, percent control, protectant, 300 g/ha, greenhouse): 100%
- pest or weed control at 300 g/ha ([2]; Podosphaera fuliginea, topical, 168 h, read-out: Cucumber Powdery Mildew (CPM) protectant fungicide data, percent control): 80%

Structure (SMILES): CCCOc1ccc(C2=NN(CC(F)(F)F)C(=O)CN2)cc1 [Compound 145]
- Rice Blast (RB) protectant fungicide data, percent control [1]: 90 percent control
- Cucumber Powdery Mildew (CPM) protectant fungicide data, percent control [2]: 0 percent control

Structure (SMILES): Cc1cc(C2=NN(CC(F)(F)F)C(=O)CN2)ccc1[N+](=O)[O-] [Compound 157]
- Rice Blast (RB) protectant fungicide data, percent control [1]: 98 percent control
- Cucumber Powdery Mildew (CPM) protectant fungicide data, percent control [2]: 0 percent control

Structure (SMILES): O=C1CNC(c2ccc(Cl)cc2)=NN1c1ccccc1 [Compound 28]
- Rice Blast (RB) protectant fungicide data, percent control [1]: 85 percent control
- Cucumber Powdery Mildew (CPM) protectant fungicide data, percent control [2]: 85 percent control

Structure (SMILES): COC(=O)N1CC(=O)N(CC(F)(F)F)N=C1c1cc(Cl)cc(Cl)c1 [Compound 71]
- Rice Blast (RB) protectant fungicide data, percent control [1]: 75 percent control
- Cucumber Powdery Mildew (CPM) protectant fungicide data, percent control [2]: 50 percent control

Structure (SMILES): O=C1CNC(c2cc(Cl)cc(Cl)c2)=NN1CC=CCl (mixture of isomers) [Compound 67]
- Rice Blast (RB) protectant fungicide data, percent control [1]: 99 percent control
- Cucumber Powdery Mildew (CPM) protectant fungicide data, percent control [2]: 80 percent control

Structure (SMILES): CCC#CCN1N=C(c2ccc(Cl)c(Cl)c2)NCC1=O [Compound 210]
- Rice Blast (RB) protectant fungicide data, percent control [1]: 100 percent control
- Cucumber Powdery Mildew (CPM) protectant fungicide data, percent control [2]: 25 percent control

Structure (SMILES): CCCCN1N=C(c2cc(Cl)cc(Cl)c2)N(C(=O)Oc2ccccc2)CC1=O [Compound 194]
- Rice Blast (RB) protectant fungicide data, percent control [1]: 80 percent control
- Cucumber Powdery Mildew (CPM) protectant fungicide data, percent control [2]: 0 percent control
